Values of other authors as cited in US20180360817A1, “EXTENDED RELEASE OSMOTIC DOSAGE FORM COMPRISING HIGH METHYLPHENIDATE HYDROCHLORIDE LOAD” (CADILA HEALTHCARE LIMITED, priority 2015, published 2018).
Like-named read-outs stand apart in the source and are kept apart here.

SMILES: COC(=O)C(c1ccccc1)C1CCCCN1.Cl (racemic) [Methylphenidate hydrochloride, d,l (racemic) methyl α-phenyl-2-piperidineacetate hydrochloride]
- Solubility (in acetone): slightly soluble
- Solubility (in alcohol): soluble
- Solubility (in chloroform): slightly soluble
- Solubility (in methanol): freely soluble
- Solubility (in water): freely soluble
